Results published in ChEMBL document CHEMBL5244278, “Bioisosteres of the Phenyl Ring: Recent Strategic Applications in Lead Optimization and Drug Design” (J Med Chem, 2021).
Values after ≈ are worked out from the molar mass of the structure shown.

How the values were obtained:
MIA PaCa-2 = assay: Antiproliferative activity against human MIA PaCa-2 cells assessed as cell growth inhibition at 30 uM relative to control; assay type: functional
SU-DHL10 = assay: Antiproliferative activity against human SU-DHL-10 cells assessed as cell growth inhibition at 30 uM relative to control; assay type: functional
MDA-MB-231 = assay: Antiproliferative activity against human MDA-MB-231 cells assessed as cell growth inhibition at 30 uM relative to control; assay type: functional
[1] = Aqueous solubility of compound at pH 7.4; assay type: physicochemical
[2] = Lipophilicity, logD of the compound at pH 7.4; assay type: physicochemical; details: buffer
[3] = Half life in rat hepatocytes; assay type: ADME, cell-based, Hepatocyte
Hepatitis C virus [4] = assay: microbe, parasite or virus in culture; details: GT1a-genotype
Hepatitis C virus [5] = assay: microbe, parasite or virus in culture; details: GT1b-genotype
[6] = Solubility of compound at pH 6.8 by RapidFire mass spectrometry; assay type: physicochemical; details: buffer
[7] = target: Voltage-gated inwardly rectifying potassium channel KCNH2 (Homo sapiens, UniProt Q12809); assay: (§1) Inhibition of hERG channel; assay type: toxicity
[8] = Lipophilicity, logD of the compound in 1-octanol and phosphate buffer by tandem mass spectrometer analysis; assay type: physicochemical; details: 1-octanol/phosphate buffer
[9] = Solubility of the compound in FaSSIF at pH 6.8 by RapidFire mass spectrometry; assay type: ADME; details: simulated gi fluid
Cytochrome P450 3A4 = Cytochrome P450 3A4 (Homo sapiens, UniProt P08684); assay: (§2) Inhibition of CYP3A4 (unknown origin); assay type: ADME
[10] = Clearance in rat liver microsomes; assay type: ADME, Microsome
[11] = Prodrug conversion in rat plasma assessed as formation of Isavuconazole from intermediate by measuring half life; assay type: ADME, cell-free
[12] = Prodrug conversion in rat plasma assessed as esterase mediated intermediate formation by measuring half life; assay type: ADME, cell-free
[13] = Solubility of the compound; assay type: physicochemical
Human rhinovirus sp. = assay: Inhibition of human rhinovirus 3C protease assessed as kobs/[I]
[14] = Aqueous solubility of compound; assay type: physicochemical
in vitro [15] = details: human, Caco-2
[16] = Half life in human plasma; assay type: ADME, cell-free
in vitro [17] = details: human, liver microsomes
[18] = Inhibition of human rhinovirus 3C protease; parameters: species or system Human rhinovirus sp.
Hepatitis C virus [19] = assay: Antiviral activity against HCV GT2a-genotype assessed as inhibition of viral replication; assay type: functional, organism-based, Hepacivirus hominis
Hepatitis C virus [20] = assay: Antiviral activity against HCV GT3a-genotype assessed as inhibition of viral replication; assay type: functional, organism-based, Hepacivirus hominis
Hepatitis C virus [21] = assay: Antiviral activity against HCV GT4a-genotype assessed as inhibition of viral replication; assay type: functional, organism-based, Hepacivirus hominis
Influenza A virus = assay: Antiviral activity against Influenza A virus A/PR/8/34 (PR8) strain infected in MDCK cells assessed as reduction in viral infection incubated for 72 hrs by crystal violet staining based assay; assay type: functional, organism-based
CYP3A4 = CYP3A4 (Homo sapiens, UniProt P08684); assay: as §2; assay type: ADME
[22] = Dissociation constant, pKa of the compound; assay type: physicochemical
[23] = Metabolic stability in human liver microsomes assessed as parent compound remaining; assay type: ADME, Microsome
Trypanosoma cruzi = assay: Antitrypanosomal activity against Trypanosoma cruzi trypomastigotes infected in mouse 3T3 cells assessed as reduction in parasite growth; assay type: functional, organism-based; details: NIH3T3
physchem [24] = details: octanol/PBS, pH 7.6
[25] = target: T1, Beta-1 adrenergic receptor (Rattus norvegicus, UniProt P18090)
[26] = target: T2, Beta-2 adrenergic receptor (Bos taurus, UniProt Q28044); assay: Antagonist activity at bovine lung membrane adrenergic beta-2 receptor; assay type: cell membranes
physchem [27] = details: buffer, pH 7.4
in vitro [28] = details: human, Caco-2; remark: listed apart in the source
physchem [29] = details: buffer, pH 7.4; remark: listed apart in the source
[30] = Inhibition of MAPK (unknown origin); parameters: species or system Homo sapiens
[31] = Inhibition of WNT (unknown origin) by luciferase reporter assay; parameters: species or system Homo sapiens
Vasopressin V1a receptor = Vasopressin V1a receptor (Homo sapiens, UniProt P37288)
in vitro [32] = details: mouse, liver microsomes
in vitro [33] = details: human, liver microsomes; remark: listed apart in the source
in vitro [34] = details: rat, liver microsomes
hERG (KCNH2) = hERG (KCNH2) (Homo sapiens, UniProt Q12809); assay: as §1; assay type: toxicity; details: human
[35] = human, microsomes
[36] = target: T2, Beta-2 adrenergic receptor; assay: Binding affinity to bovine lung membrane adrenergic beta-2 receptor; assay type: cell membranes
[37] = target: T1, Beta-1 adrenergic receptor; remark: listed apart in the source
Hepatitis C virus [38] = assay: Antiviral activity against HCV GT5a-genotype assessed as inhibition of viral replication; assay type: functional, organism-based, Hepacivirus hominis
[39] = target: Polymerase acidic protein (Influenza A virus (A/Puerto Rico/8/1934(H1N1)), UniProt P03433)

T2 sequence (Q28044 whole entry): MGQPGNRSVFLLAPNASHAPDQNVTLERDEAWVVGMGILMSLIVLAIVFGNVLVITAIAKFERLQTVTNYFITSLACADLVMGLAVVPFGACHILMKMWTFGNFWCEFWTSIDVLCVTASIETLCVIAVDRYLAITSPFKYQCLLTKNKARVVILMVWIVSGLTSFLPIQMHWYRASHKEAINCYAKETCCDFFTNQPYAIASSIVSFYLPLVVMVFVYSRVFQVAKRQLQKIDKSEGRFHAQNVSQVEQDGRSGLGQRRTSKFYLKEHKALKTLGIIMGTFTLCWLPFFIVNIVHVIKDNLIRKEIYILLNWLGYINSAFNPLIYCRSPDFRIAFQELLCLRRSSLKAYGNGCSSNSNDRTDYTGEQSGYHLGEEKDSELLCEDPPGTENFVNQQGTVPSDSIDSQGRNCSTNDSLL
Sequence of CYP3A4 (P08684 whole entry): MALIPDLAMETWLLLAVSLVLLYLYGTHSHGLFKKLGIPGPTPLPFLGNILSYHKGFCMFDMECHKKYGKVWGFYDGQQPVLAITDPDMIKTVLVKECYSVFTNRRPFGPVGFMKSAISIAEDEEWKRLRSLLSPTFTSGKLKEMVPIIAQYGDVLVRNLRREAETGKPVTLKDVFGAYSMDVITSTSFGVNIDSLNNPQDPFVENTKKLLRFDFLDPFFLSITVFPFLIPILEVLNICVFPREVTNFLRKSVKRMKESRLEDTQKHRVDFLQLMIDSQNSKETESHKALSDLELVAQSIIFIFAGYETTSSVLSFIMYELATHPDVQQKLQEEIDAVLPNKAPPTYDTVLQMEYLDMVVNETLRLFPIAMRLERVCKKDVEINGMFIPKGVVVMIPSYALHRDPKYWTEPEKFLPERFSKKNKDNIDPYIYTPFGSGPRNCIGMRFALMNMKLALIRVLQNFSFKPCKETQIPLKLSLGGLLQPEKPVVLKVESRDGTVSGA
T1 sequence (P18090 whole entry): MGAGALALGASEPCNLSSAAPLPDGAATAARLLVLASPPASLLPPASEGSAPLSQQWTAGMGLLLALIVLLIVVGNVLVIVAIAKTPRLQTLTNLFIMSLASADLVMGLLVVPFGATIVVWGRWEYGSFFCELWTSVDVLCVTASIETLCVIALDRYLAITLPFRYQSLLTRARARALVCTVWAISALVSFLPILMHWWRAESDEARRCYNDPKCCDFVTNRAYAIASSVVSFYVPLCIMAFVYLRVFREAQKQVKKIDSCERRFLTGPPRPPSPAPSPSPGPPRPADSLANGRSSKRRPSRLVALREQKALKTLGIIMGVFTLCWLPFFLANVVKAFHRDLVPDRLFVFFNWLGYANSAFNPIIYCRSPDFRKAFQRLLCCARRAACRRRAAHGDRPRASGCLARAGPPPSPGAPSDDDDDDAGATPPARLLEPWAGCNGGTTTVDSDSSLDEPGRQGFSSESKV
Sequence of Voltage-gated inwardly rectifying potassium channel KCNH2 (Q12809 whole entry): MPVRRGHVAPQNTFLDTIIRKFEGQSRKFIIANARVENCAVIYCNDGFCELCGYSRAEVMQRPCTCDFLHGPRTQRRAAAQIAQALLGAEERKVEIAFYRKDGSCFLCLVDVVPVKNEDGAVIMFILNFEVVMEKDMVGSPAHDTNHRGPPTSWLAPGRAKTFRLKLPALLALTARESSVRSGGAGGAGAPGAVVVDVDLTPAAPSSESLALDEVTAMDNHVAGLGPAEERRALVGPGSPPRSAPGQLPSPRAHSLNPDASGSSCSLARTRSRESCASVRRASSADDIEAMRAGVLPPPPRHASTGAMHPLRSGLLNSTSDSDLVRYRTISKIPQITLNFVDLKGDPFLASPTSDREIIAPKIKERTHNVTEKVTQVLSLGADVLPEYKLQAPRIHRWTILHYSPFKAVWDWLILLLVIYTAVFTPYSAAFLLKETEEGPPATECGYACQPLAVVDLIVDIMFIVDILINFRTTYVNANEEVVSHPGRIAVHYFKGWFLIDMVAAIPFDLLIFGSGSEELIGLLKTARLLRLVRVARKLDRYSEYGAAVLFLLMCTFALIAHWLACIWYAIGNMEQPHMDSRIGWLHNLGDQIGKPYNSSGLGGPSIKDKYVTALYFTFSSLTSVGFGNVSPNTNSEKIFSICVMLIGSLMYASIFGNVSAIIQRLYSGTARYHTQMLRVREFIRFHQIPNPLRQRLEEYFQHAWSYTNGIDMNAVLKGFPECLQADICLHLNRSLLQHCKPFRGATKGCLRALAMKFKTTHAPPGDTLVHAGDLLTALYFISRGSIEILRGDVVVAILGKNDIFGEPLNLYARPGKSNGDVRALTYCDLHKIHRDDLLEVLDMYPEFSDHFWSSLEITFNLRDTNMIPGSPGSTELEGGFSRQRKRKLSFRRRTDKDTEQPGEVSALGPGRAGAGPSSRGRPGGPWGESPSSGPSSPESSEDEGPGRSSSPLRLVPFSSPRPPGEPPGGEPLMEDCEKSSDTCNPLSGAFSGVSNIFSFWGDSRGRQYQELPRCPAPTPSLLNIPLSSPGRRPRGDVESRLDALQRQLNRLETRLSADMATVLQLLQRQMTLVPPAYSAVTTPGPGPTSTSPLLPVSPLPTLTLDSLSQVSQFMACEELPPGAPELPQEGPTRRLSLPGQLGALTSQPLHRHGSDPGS
Sequence of hERG (KCNH2) (Q12809 whole entry): as above
Sequence of Cytochrome P450 3A4 (P08684 whole entry): as the sequence (P08684 whole entry) above
Sequence of Vasopressin V1a receptor (P37288 whole entry): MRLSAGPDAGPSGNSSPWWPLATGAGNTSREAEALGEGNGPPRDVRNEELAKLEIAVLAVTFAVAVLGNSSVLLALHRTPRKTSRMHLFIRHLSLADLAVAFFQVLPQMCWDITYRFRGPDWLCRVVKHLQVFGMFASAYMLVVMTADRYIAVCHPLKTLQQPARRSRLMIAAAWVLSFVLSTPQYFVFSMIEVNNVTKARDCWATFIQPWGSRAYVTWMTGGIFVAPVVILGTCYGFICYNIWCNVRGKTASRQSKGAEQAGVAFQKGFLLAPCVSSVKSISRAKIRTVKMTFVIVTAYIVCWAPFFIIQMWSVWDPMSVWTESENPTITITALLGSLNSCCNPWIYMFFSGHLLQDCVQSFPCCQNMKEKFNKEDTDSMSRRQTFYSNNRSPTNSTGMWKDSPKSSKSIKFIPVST

Oc1cc(O)cc(/C=C/C23CC(O)(C2)C3)c1
inhibition at 30 µM (MIA PaCa-2): 30% | inhibition at 30 µM (SU-DHL10): 41% | inhibition at 30 µM (MDA-MB-231): 22% | solubility [1]: 619 µg/mL (≈ 2840 µM) | logD [2]: 1.9 | half-life [3]: 24 min

COC(=O)N[C@@H](C(=O)N1CCC[C@@H]1c1ncc(-c2cc3sc(-c4cnc([C@H]5CCCN5C(=O)[C@H](NC(=O)OC)C(C)C)[nH]4)cc3s2)[nH]1)C(C)C
EC50 (Hepatitis C virus [4]): 10 nM | EC50 (Hepatitis C virus [5]): < 1 nM

O=C(NCCS(=O)(=O)c1ccc(C(F)(F)F)cn1)c1ccc(B2C=CC=CN2)cc1
solubility [6]: < 0.004 µM | IC50 [7]: > 30000 nM | logD [8]: 3.5 | solubility [9]: 0.006 µM (≈ 2.61 ng/mL) | IC50 (Cytochrome P450 3A4): > 20000 nM | CLhep predicted [10]: 53 mL/min/kg

CNCC(=O)OCc1ccccc1N(C)C(=O)OC(C)[n+]1cnn(C[C@](O)(c2cc(F)ccc2F)[C@H](C)c2nc(-c3ccc(C#N)cc3)cs2)c1 (some centres not stated)
t1/2 [11]: 13 min | t1/2 [12]: < 2 min | solubility [13]: 1000 µg/mL

C#CC[C@@H](C(=O)N[C@H](/C=C/C(=O)OCC)C[C@@H]1CCNC1=O)n1cccc(NC(=O)c2cc(C)on2)c1=O [IMOCITRELVIR]
Ratio (Human rhinovirus sp.): 223000 M/s | solubility [14]: 377 µg/mL (≈ 720 µM) | Papp A→B (in vitro [15]): 6 ×10⁻⁶ cm/s | half-life [16]: 396 min | remaining at 0.5 h (in vitro [17]): 60% | EC50 [18]: 58 nM

COC(=O)N[C@@H](C(=O)N1CCC[C@@H]1c1ncc(-c2csc3c(-c4cnc([C@H]5CCCN5C(=O)[C@H](NC(=O)OC)C(C)C)[nH]4)csc23)[nH]1)C(C)C
EC50 (Hepatitis C virus [4]): < 0.1 nM | EC50 (Hepatitis C virus [19]): < 0.1 nM | EC50 (Hepatitis C virus [20]): 0.1 nM | EC50 (Hepatitis C virus [21]): < 0.1 nM

O=C(O)/C(O)=C/C(=O)C1CCCCC1
IC50 (Influenza A virus): 29400 nM

COc1ccccc1N1CCN(CCCCNC(=O)c2ccc(-c3ccccc3)cc2)CC1
solubility [6]: < 0.005 µM | solubility [9]: 0.021 µM (≈ 9.32 ng/mL) | IC50 (CYP3A4): > 20000 nM | CLhep predicted [10]: 51 mL/min/kg

NC12CCC(CC1)CC2
pKa [22]: 11

CN1CCN(c2ccc(Nc3cc(C4CC4)[nH]n3)nc2)CC1
Stability [23]: 73%

NC12CCC(CC1)C2
pKa [22]: 11

O=C(Cn1ccnc1[N+](=O)[O-])NCc1ccccc1 [BENZNIDAZOLE]
EC50 (Trypanosoma cruzi): 6100 nM

O=C(CCCCCCC(=O)Nc1ccccc1)NO [VORINOSTAT]
logD (physchem [24]): 0.99

CC/C=N/OCC(O)CNC(C)(C)C (configuration not stated)
IC50 [25]: 26300 nM | IC50 [26]: 1550 nM

Clc1ccc2c(c1)CCCc1nnc(C3CCN(c4ccccn4)CC3)n1-2
solubility kinetic (physchem [27]): 8.9 µM (≈ 3380 ng/mL) | efflux ratio (in vitro [28]): 1

COCCn1c(SC)nc(-c2ccc(F)cc2)c1-c1cccc(NC(=O)CCc2ccc(OC)cc2)c1
solubility (physchem [29]): 0.0473 µg/mL (≈ 0.091 µM) | IC50 [30]: 48 nM

Cc1cc(-c2ccc(CNC(=O)C34CC(c5cnccn5)(C3)C4)cc2)ccn1
EC50 [31]: > 50 nM

Clc1cnc2n1CCCc1nnc(C3CCN(c4ccccn4)CC3)n1-2
Ki (Vasopressin V1a receptor): 140 nM | microsomal CLint (in vitro [32]): 33 µL/min/mg | solubility kinetic (physchem [27]): 93.8 µM (≈ 34700 ng/mL) | microsomal CLint (in vitro [33]): 4 µL/min/mg | microsomal CLint (in vitro [34]): 32 µL/min/mg

O=C(Cn1ccnc1[N+](=O)[O-])NCC1=C/C=C\C=C/C=C\1
EC50 (Trypanosoma cruzi): 2300 nM

CC(C)NCC(O)c1ccc(Cl)c(Cl)c1 (configuration not stated) [DICHLOROISOPROTERENOL]
IC50 [25]: 115 nM | IC50 [26]: 977 nM

COCCn1c(SC)nc(-c2ccc(F)cc2)c1-c1cccc(NC(=O)CCc2ccccc2OC)c1
solubility (physchem [29]): 0.0255 µg/mL (≈ 0.0491 µM) | IC50 [30]: 93 nM

O=C(NCCS(=O)(=O)c1ccc(C(F)(F)F)cn1)c1ccc(-c2ccccc2)cc1
solubility [6]: < 0.004 µM | IC50 [7]: > 30000 nM | solubility [9]: < 0.004 µM | IC50 (CYP3A4): > 20000 nM | CLhep predicted [10]: 39 mL/min/kg

Cc1cc(-c2ccc(CNC(=O)c3ccc(-c4cnccn4)cc3)cc2)ccn1
EC50 [31]: 0.7 nM

O=C(Cc1ccc(B2C=CC=CN2)cc1)Nc1cc(C2CC2)[nH]n1
solubility [6]: 0.013 µM (≈ 4.14 ng/mL) | IC50 (hERG (KCNH2)): > 30000 nM | logD [8]: 3.9 | solubility [9]: 0.03 µM (≈ 9.55 ng/mL) | IC50 (Cytochrome P450 3A4): > 20000 nM | CLhep predicted [10]: 48 mL/min/kg

Oc1ccc(/C=C/c2cc(O)cc(O)c2)cc1 [RESVERATROL]
inhibition at 30 µM (MIA PaCa-2): 30% | inhibition at 30 µM (SU-DHL10): 46% | inhibition at 30 µM (MDA-MB-231): 20% | solubility [1]: 19 µg/mL (≈ 83.2 µM) | logD [2]: 2.9 | half-life [3]: < 7.5 min

CN1CCN(c2ccc(Nc3cc(C4CC4)[nH]n3)cc2)CC1
Stability [23]: 92%

CCOC(=O)/C=C/[C@H](C[C@@H]1CCNC1=O)NC(=O)[C@H](Cc1ccc(F)c(F)c1)n1cccc(NC(=O)c2cc(C)on2)c1=O
Ratio (Human rhinovirus sp.): 1.8e+06 M/s | solubility [14]: 25 µg/mL (≈ 40.9 µM) | Papp A→B (in vitro [15]): 35 ×10⁻⁶ cm/s | remaining at 0.5 h (in vitro [17]): 19% | EC50 [18]: 11 nM

Clc1cnc2n1CCCc1nnc([C@H]3CC[C@H](Oc4ccccn4)CC3)n1-2
Ki (Vasopressin V1a receptor): 14 nM | Papp A→B (in vitro [15]): 41 ×10⁻⁶ cm/s | solubility kinetic (physchem [27]): 49.6 µM (≈ 19100 ng/mL) | CLH [35]: 1 µL/min/mg

CCO/N=C/C(O)CNC(C)(C)C (configuration not stated)
Ki [36]: 850 nM | Ki [37]: 850 nM | IC50 [25]: 8320 nM | IC50 [26]: 269 nM

CN1CCN(c2ccc(Nc3cc(C4CC4)[nH]n3)nn2)CC1
Stability [23]: 81%

COCCn1c(SC)nc(-c2ccc(F)cc2)c1-c1cccc(NC(=O)CCc2cccc(OC)c2)c1
solubility (physchem [29]): 0.275 µg/mL (≈ 0.529 µM) | IC50 [30]: 93 nM

NC12CC(C1)C2
pKa [22]: 11

CNCC(=O)OCc1cccnc1N(C)C(=O)OC(C)[n+]1cnn(C[C@](O)(c2cc(F)ccc2F)[C@H](C)c2nc(-c3ccc(C#N)cc3)cs2)c1 (some centres not stated)
t1/2 [11]: < 1 min | t1/2 [12]: < 1 min | solubility [13]: > 100000 µg/mL

COC(=O)N[C@H](C(=O)N1CCC[C@H]1c1nc2cc(-c3csc4c(-c5ccc(-c6c[nH]c([C@@H]7CCCN7C(=O)[C@H](NC(=O)OC)c7ccccc7)n6)cc5)csc34)ccc2[nH]1)C(C)C
EC50 (Hepatitis C virus [4]): 0.002 nM | EC50 (Hepatitis C virus [19]): 0.002 nM | EC50 (Hepatitis C virus [20]): 0.1 nM | EC50 (Hepatitis C virus [38]): 0.002 nM | EC50 (Hepatitis C virus [5]): 0.002 nM | EC50 (Hepatitis C virus [21]): 0.002 nM

O=C(Cc1ccc(-c2ccccc2)cc1)Nc1cc(C2CC2)[nH]n1
solubility [6]: < 0.004 µM | IC50 (hERG (KCNH2)): > 30000 nM | logD [8]: 4.4 | solubility [9]: 0.006 µM (≈ 1.9 ng/mL) | IC50 (CYP3A4): > 20000 nM | CLhep predicted [10]: 48 mL/min/kg

CCN1CCC(Cc2ccc(Cl)cc2)(C(=O)/C=C(\O)C(=O)O)CC1
Ki [39]: 90 nM | IC50 (Influenza A virus): 1100 nM
